Reference: PMC8929578, “In vitro and in silico evaluation of Ononis isoflavonoids as molecules targeting the central nervous system” (PLoS ONE, 2022)
“And” between values parts separate entries of the source, which are not always exact repeats. Equal values may be shown once. Read-outs that look alike come from different tables or passages of the source. One block for each compound: values may come before it.

How the values were obtained:
[1] = test system: MAO-B vs MAO-A; experiment: Selectivity index of ChEMBl reference structures (MAO-A and MAO-B IC50); format: biochemical, human; details: for Selectivity: selectivity index calculated from ChEMBl IC50 values of MAO-A and MAO-B
[2] = target: T1, Monoamine oxidase B (Homo sapiens, UniProt P27338); details: cited from earlier work
T1 sequence (P27338 2-520): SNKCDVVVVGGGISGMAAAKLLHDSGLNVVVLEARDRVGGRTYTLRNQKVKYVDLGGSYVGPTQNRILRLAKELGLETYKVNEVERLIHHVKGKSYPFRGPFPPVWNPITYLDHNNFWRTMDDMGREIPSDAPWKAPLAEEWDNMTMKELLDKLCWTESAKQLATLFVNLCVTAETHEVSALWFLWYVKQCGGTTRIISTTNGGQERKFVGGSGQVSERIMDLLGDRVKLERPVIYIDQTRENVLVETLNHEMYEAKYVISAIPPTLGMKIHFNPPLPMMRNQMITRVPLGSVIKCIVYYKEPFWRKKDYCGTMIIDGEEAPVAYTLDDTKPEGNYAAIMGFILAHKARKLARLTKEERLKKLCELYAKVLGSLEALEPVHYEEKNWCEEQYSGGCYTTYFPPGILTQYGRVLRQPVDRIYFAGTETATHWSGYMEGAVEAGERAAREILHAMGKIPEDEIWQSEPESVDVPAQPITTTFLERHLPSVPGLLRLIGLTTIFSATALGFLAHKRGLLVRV

[3] = target: T2, Monoamine oxidase A (Homo sapiens, UniProt P21397); details: cited from earlier work
T2 sequence (P21397 1-527): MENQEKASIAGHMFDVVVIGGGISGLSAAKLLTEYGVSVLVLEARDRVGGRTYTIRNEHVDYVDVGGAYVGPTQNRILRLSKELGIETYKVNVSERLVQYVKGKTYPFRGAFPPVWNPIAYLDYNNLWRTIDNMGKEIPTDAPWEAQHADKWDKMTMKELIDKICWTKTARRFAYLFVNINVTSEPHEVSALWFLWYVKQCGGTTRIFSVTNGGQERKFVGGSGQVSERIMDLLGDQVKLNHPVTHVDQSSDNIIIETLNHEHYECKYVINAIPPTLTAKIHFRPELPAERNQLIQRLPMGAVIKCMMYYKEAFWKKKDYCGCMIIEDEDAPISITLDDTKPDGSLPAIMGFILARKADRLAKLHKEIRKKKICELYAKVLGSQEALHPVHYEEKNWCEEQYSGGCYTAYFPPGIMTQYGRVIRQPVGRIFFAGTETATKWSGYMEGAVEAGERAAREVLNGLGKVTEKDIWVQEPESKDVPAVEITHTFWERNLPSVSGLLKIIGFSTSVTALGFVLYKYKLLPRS

[4] = set-up: method as in literature (reference not given); details: ref literature (reference not given); cited from earlier work
[5] = PAMPA-BBB parallel artificial membrane permeability assay; details: for Papp at 4 h, 100 µM: PAMPA; for Experimental log Pe value / Membrane retention: PAMPA-BBB, pH 7.4, 37°C, 4 hours, n=9, ± SD; for Experimental log Pe value: Pe in cm/s
[6] = Octanol/water partitioning, shake-flask method (log P, log D^pH); details: n-octanol/Britton-Robinson buffer
[7] = test system: MAO-B; details: cited from earlier work; for MAO-B selectivity index: MAO-B over MAO-A; for IC50: in vitro
[8] = PAMPA, pH 7.4

SMILES: c1ccc2c(c1)OCC(C1=NCCN1)O2 (stereo not shown) [CHEMBL10316, IDAZOXAN]
Selectivity index ([1]; MAO-A IC50 / MAO-B IC50 of ChEMBL reference structures): 1
pChEMBL Value, Type B ([2]; MAO-B, ref ChEMBL database): 6
IC50 ([2]; MAO-B, ref ChEMBL database, read-out: Standard Value (IC50), Type B): 1000 nM
pChEMBL Value, MAO B ([2]; human enzyme, lines marked B, ref ChEMBl database): 6
IC50 ([2]; human enzyme, lines marked B, ref ChEMBl database, read-out: Standard Value (IC50), MAO B): 1000 nM
pChEMBL Value, Type A ([3]; MAO-A, ref ChEMBL database): 6
pChEMBL Value, MAO A ([3]; human enzyme, ref ChEMBl database): 6
IC50 ([3]; read-out: Standard Value (IC50), MAO A, human enzyme, ref ChEMBl database): 1000 nM
IC50 ([3]; read-out: Standard Value (IC50), Type A, MAO-A, ref ChEMBL database): 1000 nM

SMILES: COc1ccc(C2CC(c3ccc(O)cc3)=NN2C(C)=O)cc1 (stereo not shown) [CHEMBL65761]
Selectivity [1]: 0.00125

SMILES: O=C1/C(=C/c2ccc(O)cc2)COc2cc(O)cc(O)c21 [CHEMBL1077616]
IC50 ([2]; human enzyme, closest reference structures, ref ChEMBl database, read-out: IC50 values (MAO-B)): 8710 nM

SMILES: O=C1/C(=C/c2ccc(O)c(O)c2)COc2ccccc21 [CHEMBL1766558]
Selectivity [1]: 33.7319 and 33.73

SMILES: O=C(Nc1ccc(O)c(O)c1)c1cc(=O)c2ccccc2o1 [CHEMBL1814057]
Selectivity [1]: 0.07

SMILES: O=C(Nc1ccc(O)cc1)c1coc2ccccc2c1=O [CHEMBL1814064]
Selectivity [1]: 74.375 and 74.38

SMILES: O=C(Nc1ccc(O)c(O)c1)c1coc2ccccc2c1=O [CHEMBL1814066]
Selectivity [1]: 2.69

SMILES: O=C1/C(=C/c2ccc(N3CCOCC3)cc2)Oc2cc(O)cc(O)c21 [CHEMBL1814450]
Selectivity [1]: 3.176

SMILES: O=c1c2ccccc2sc2cc(O)cc(O)c12 [CHEMBL2018439, 1,3-Dihydroxythioxanthone]
Selectivity [1]: 0.9333

SMILES: CN(C)c1ccc(/C=C2\Oc3cc(O)cc(O)c3C2=O)cc1 [CHEMBL2288402]
Selectivity [1]: 0.04 and 0.03923

SMILES: O=C1/C(=C/c2ccc(N3CCCC3)cc2)Oc2cc(O)cc(O)c21 [CHEMBL3786282]
Selectivity [1]: 1.1688

SMILES: CCN(CC)c1ccc(/C=C2\Oc3cc(O)cc(O)c3C2=O)cc1 [CHEMBL3786747]
Selectivity [1]: 0.3443

SMILES: CCN(C)c1ccc(/C=C2\Oc3cc(O)cc(O)c3C2=O)cc1 [CHEMBL3786785]
Selectivity [1]: 0.03453

SMILES: O=C1/C(=C/c2ccc(O)cc2)Cc2cc(O)ccc21 [CHEMBL3890408]
Selectivity [1]: 0.6095 and 0.61

SMILES: O=C1/C(=C/c2cccc(O)c2)Cc2cc(O)ccc21 [CHEMBL3891485]
Selectivity [1]: 1.242 and 1.24

SMILES: N#Cc1ccc(/C=C2\Cc3cc(O)ccc3C2=O)cc1 [CHEMBL3900500]
Selectivity [1]: 6.582

SMILES: O=C1/C(=C/c2ccc(Cl)cc2)Cc2cc(O)ccc21 [CHEMBL3907033]
Selectivity [1]: 57

SMILES: COc1cccc(/C=C2\Cc3cc(O)ccc3C2=O)c1 [CHEMBL3918471]
Selectivity [1]: 2.527

SMILES: O=C1/C(=C/c2cccc(Cl)c2)Cc2cc(O)ccc21 [CHEMBL3924440]
Selectivity [1]: 5.233

SMILES: O=C1/C(=C/c2ccc(F)cc2)Cc2cc(O)ccc21 [CHEMBL3933900]
Selectivity [1]: 14.4468

SMILES: O=C1/C(=C/c2ccc(Br)cc2)Cc2cc(O)ccc21 [CHEMBL3950873]
Selectivity [1]: 198.113

SMILES: O=C1/C(=C/c2cccc(F)c2)Cc2cc(O)ccc21 [CHEMBL3965044]
Selectivity [1]: 5.452

SMILES: N#Cc1cccc(/C=C2\Cc3cc(O)ccc3C2=O)c1 [CHEMBL3971638]
Selectivity [1]: 3.415

SMILES: O=C1/C(=C/c2cccc(Br)c2)Cc2cc(O)ccc21 [CHEMBL3979091]
Selectivity [1]: 10.0769

SMILES: Cc1ccc2occ(/C=N/c3cc(Cl)ccc3O)c(=O)c2c1 [CHEMBL4073506]
Selectivity [1]: 3.391

SMILES: O=c1c(/C=N/c2cc(F)ccc2O)coc2ccccc12 [CHEMBL4082043]
Selectivity [1]: 2.612

SMILES: Cc1ccc(O)c(/N=C/c2coc3ccc(C)cc3c2=O)c1 [CHEMBL4082612]
Selectivity [1]: 6.275

SMILES: O=c1c(/C=N/c2ccc(Cl)cc2O)coc2ccccc12 [CHEMBL4086270]
Selectivity [1]: 0.7978

SMILES: Cc1ccc2occ(/C=N/c3cc(F)ccc3O)c(=O)c2c1 [CHEMBL4090445]
Selectivity [1]: 1.637

SMILES: Cc1ccc2occ(/C=N/c3ccc(Cl)cc3O)c(=O)c2c1 [CHEMBL4099570]
Selectivity [1]: 2.863

SMILES: Cc1ccc(O)c(/N=C/c2coc3ccccc3c2=O)c1 [CHEMBL4100473]
Selectivity [1]: 2.956

Papp at 4 h, 100 µM [5]: 3.24 ×10⁻⁶ cm/s
SMILES: Cn1c(=O)c2c(ncn2C)n(C)c1=O [Caffeine]
log BB literature value [4]: 0.01

Papp at 4 h, 100 µM ([5]; pH 7.4): 2.5 ×10⁻⁶ cm/s
Experimental log Pe value [5]: -5.60 and -5.60 ± 0.07
Membrane retention [5]: 16.49% and 16.49 ± 1.38%
BBB category from Pe ([5]; categorization of Di et al.): uncertain
BBB category from log Pe ([5]; cut-off of Könczöl et al.): well-permeating
BBB category from log Pe ([5]; cut-off of Mensch et al.): BBB-
logD at 1 h ([6]; pH 5): 2.48 ± 0.02
logP at 1 h ([6]; pH 5): 2.48
logD at 1 h ([6]; pH 7.4): 2.21 ± 0.04
SMILES: COc1cc(-c2coc3cc(O)ccc3c2=O)ccc1O [Calycosin D]

SMILES: COc1ccc(-c2coc3cc(O)ccc3c2=O)cc1O [Calycosin]
MAO-B selectivity index [7]: 293.8
IC50 [7]: 240 nM

Papp at 4 h, 100 µM ([5]; pH 7.4): 10 ×10⁻⁶ cm/s
Experimental log Pe value [5]: -5.00 ± 0.11
Membrane retention [5]: 27.25% and 27.25 ± 6.43%
logD at 1 h ([6]; pH 5): 2.83 ± 0.05
logP at 1 h ([6]; pH 5): 2.83
logD at 1 h ([6]; pH 7.4): 2.73 ± 0.07
SMILES: COc1ccc(-c2coc3cc(O)ccc3c2=O)cc1 [Formononetin]

Experimental log Pe value ([8]; 4 h, 100 µM): -4.48
Experimental log Pe value [8]: -4.48 ± 0.08
Measured log D^7.4 ± SE ([6]; pH 7.4, 25°C): 2.49 ± 0.02
Experimental log P ([6]; unionized form (pH 5 for isoflavones and isoflavanones)): 2.49
SMILES: Oc1ccc2c(c1)OC[C@H]1c3cc4c(cc3O[C@@H]21)OCO4 [Maackiain]
MAO-B selectivity index [7]: 126.2
Type of MAO-B inhibition [7]: reversible
IC50 [7]: 680 nM

SMILES: COc1ccc2c(c1)O[C@H]1c3ccc(O)cc3OC[C@@H]21 [Medicarpin]
Experimental log P (pH 5): 3.03
Measured log D^7.4 ± SE (pH 7.4): 3.03 ± 0.02
Experimental log Pe value ([8]; 4 h, 100 µM): -4.45
Experimental log Pe value [8]: -4.45 ± 0.04
IC50 [7]: 300 nM

Papp at 4 h, 100 µM ([5]; pH 7.4): 18.6 ×10⁻⁶ cm/s
Experimental log Pe value [5]: -4.73 ± 0.04
Membrane retention [5]: 32.51% and 31.51 ± 4.04%
logD at 1 h ([6]; pH 5): 3.03 ± 0.02
logP at 1 h ([6]; pH 5): 3.03
logD at 1 h ([6]; pH 7.4): 2.49 ± 0.04
SMILES: COc1cc2c(cc1C1COc3cc(O)ccc3C1=O)OCO2 (stereo not shown) [Onogenin]

Papp at 4 h, 100 µM [5]: 15.5 ×10⁻⁶ cm/s
SMILES: C=C[C@H]1C[N@@]2CC[C@H]1C[C@H]2[C@H](O)c1ccnc2ccc(OC)cc12 [Quinine]
log BB literature value [4]: 0.60

SMILES: C[C@@H]1O[C@@H](OC[C@H]2O[C@@H](Oc3c(-c4ccc(O)c(O)c4)oc4cc(O)cc(O)c4c3=O)[C@H](O)[C@@H](O)[C@@H]2O)[C@H](O)[C@H](O)[C@H]1O [Rutin]
log BB literature value [4]: -1.22
Papp at 4 h, 100 µM [5]: 0.00776 ×10⁻⁶ cm/s

Papp at 4 h, 100 µM [5]: 0.00851 ×10⁻⁶ cm/s
SMILES: O=C(O)c1ccccc1O [Salicylic acid]
log BB literature value [4]: -1.10

Papp at 4 h, 100 µM ([5]; pH 7.4): 17.4 ×10⁻⁶ cm/s
Experimental log Pe value [5]: -4.76 ± 0.07
Membrane retention [5]: 33.66% and 33.66 ± 4.13%
logD at 1 h ([6]; pH 5): 3.04 ± 0.01
logP at 1 h ([6]; pH 5): 3.04
logD at 1 h ([6]; pH 7.4): 2.75 ± 0.03
SMILES: COc1ccc(C2COc3cc(O)ccc3C2=O)c(OC)c1 (stereo not shown) [Sativanone]
